In patent publication EP4603105A1, “PHARMACEUTICAL COMPOSITION CONTAINING CYCLIC COMPOUND HAVING SELECTIVE KRAS INHIBITORY EFFECT AGAINST HRAS AND NRAS” (CHUGAI SEIYAKU KABUSHIKI KAISHA, priority 2022, dated 2024):
Where a SMILES comes first, the peptide text is derived from it. Bridges are numbered along the chain shown (N, C = ends). [ ]: non-standard residue; d: D form. The star is where a group is joined. hPhe(3-Cl-4-CF3) = N[C@@H](CCc1ccc(C(F)(F)F)c(Cl)c1)C(=O)O; NPrPhe(4-CF3) = CCCN[C@@H](Cc1ccc(C(F)(F)F)cc1)C(=O)O; NMeGly(cPent) = CN[C@H](C(=O)O)C1CCCC1; cisHyp = O=C(O)[C@@H]1C[C@H](O)CN1; Hyp = O=C(O)[C@@H]1C[C@@H](O)CN1; NMeD = CN[C@@H](CC(=O)O)C(=O)O; NMeL = CN[C@@H](CC(C)C)C(=O)O; Morpholide = C1CN(*)CCO1; NMeA = CN[C@@H](C)C(=O)O; Ac5c = NC1(C(=O)O)CCCC1; Aze = O=C(O)[C@@H]1CCN1; Sar = CNCC(=O)O

Tests used:
[1] = target: GDP-bound NRAS wild-type protein (Homo sapiens, UniProt P01111); assay: Binding to NRAS by surface plasmon resonance (SPR), KD and KD ratio to KRAS
Chain of GDP-bound NRAS wild-type protein (P01111 whole entry): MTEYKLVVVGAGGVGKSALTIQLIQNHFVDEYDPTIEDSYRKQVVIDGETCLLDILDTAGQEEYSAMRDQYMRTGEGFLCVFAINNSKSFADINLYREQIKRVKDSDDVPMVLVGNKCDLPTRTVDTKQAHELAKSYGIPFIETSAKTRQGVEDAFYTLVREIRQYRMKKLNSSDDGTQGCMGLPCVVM
Method in brief: (§1)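 SPR, 30°C: Avi-biotin RAS·GDP captured via Biotin CAPture (~100–300 RU); running buffer HBS pH 7.4, 1 mM DTT, 10 mM MgCl2, 0.01% Tween 20, 10 µM GDP, 4% DMSO. Single-cycle kinetics, 100 µL/min, 75 s injections; 1:1 model → KD.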

[2] = tested on: human lung cancer strain NCI-H441; format: cell-based
Method in brief: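 Proliferation was scored by […] measured after the reagent was added to cultures kept at 37°C in 5% carbon dioxide.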

[3] = target: HRAS wild-type protein (Homo sapiens, UniProt P01112); assay: Binding to HRAS by surface plasmon resonance (SPR), KD and KD ratio to KRAS
Chain of HRAS wild-type protein (P01112 whole entry): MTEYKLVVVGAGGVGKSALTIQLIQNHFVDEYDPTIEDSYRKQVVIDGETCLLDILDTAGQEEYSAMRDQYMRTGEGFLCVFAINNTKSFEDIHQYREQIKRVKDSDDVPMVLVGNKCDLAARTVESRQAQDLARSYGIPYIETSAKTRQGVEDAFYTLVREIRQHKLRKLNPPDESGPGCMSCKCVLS
Method in brief: as §1

[4] = ratio of the KD value with respect to GDP-bound NRAS wild-type protein to the KD value with respect to KRAS
[5] = ratio of the KD value with respect to HRAS wild-type protein to the KD value with respect to KRAS
[6] = ratio of KD for GDP-bound NRAS wild-type protein to KD for KRAS
[7] = ratio of KD for HRAS wild-type protein to KD for KRAS

| IC50 [2] | SMILES | NRAS /KRAS [1, 4] | HRAS /KRAS [3, 5] | NRAS /KRAS [1, 6] | HRAS /KRAS [3, 7] | NRAS /KRAS ([1]; ratio of KD value for GDP-bound NRAS wild-type protein to KD value for KRAS (SPR)) | HRAS /KRAS ([3]; ratio of KD value for HRAS wild-type protein to KD value for KRAS (SPR)) |
| --- | --- | --- | --- | --- | --- | --- | --- |
| 2 nM | CCCN1C(=O)CN(C)C(=O)CNC(=O)[C@H]([C@@H](C)CC)NC(=O)[C@H](CC(C)C)N(C)C(=O)C[C@@H](C(=O)N(C)C)N(C)C(=O)[C@H](C2CCCC2)N(C)C(=O)C2(CCCC2)NC(=O)[C@@H]2C[C@@H](OCC)CN2C(=O)[C@H](CCc2ccc(C(F)(F)F)c(Cl)c2)NC(=O)CN(C)C(=O)[C@@H]1Cc1ccc(C(F)(F)F)cc1 [PP0421] ([NMeL]IG[Sar][NPrPhe(4-CF3)][Sar][hPhe(3-Cl-4-CF3)][Hyp](Et)[Ac5c][NMeGly(cPent)][NMeD]-NMe2; lactam N-11) | B (a compound having 3 or more and less than 10 is denoted as B) | C (A compound having a KD ratio of 0.1 or more and less than 3 is denoted as C) | – | – | – | – |
| 4.1 nM | CCC[C@H]1C(=O)N[C@@H]([C@@H](C)CC)C(=O)N(C)CC(=O)N(C)[C@H]2C/C=C\CCN(C2=O)[C@@H](Cc2ccc(C)cc2)C(=O)N(C)CC(=O)N[C@@H](CCc2cc(F)c(C(F)(F)F)c(F)c2)C(=O)N2CC3(CC3)C[C@H]2C(=O)NC2(CC(C)(C)C2)C(=O)N(C)[C@@H](CC(C)(C)C)C(=O)N(C)[C@H](C(=O)N(C)C)CC(=O)N1C [PP2997] | – | – | A (a compound having 10 or more and less than 20 is denoted as A) | B (a compound having 3 or more and less than 10 is denoted as B) | – | – |
| 11.1 nM | CCO[C@@H]1C[C@H]2C(=O)NC3(CC(C)(C)C3)C(=O)N(C)[C@@H](C(CC)CC)C(=O)N(C)[C@H](C(=O)N(C)C)CC(=O)N(C)[C@H]3CCCCC/C=C/c4ccc(cc4)C[C@@H](C(=O)N(C)CC(=O)N[C@@H](CCc4cc(F)c(C(F)(F)F)c(F)c4)C(=O)N2C1)N1CC/C=C\C[C@@H](C1=O)N(C)C(=O)CN(C)C(=O)[C@H]([C@@H](C)CC)NC3=O [PP3048] | – | – | A (a compound having 10 or more and less than 20 is denoted as A) | A (a compound having 10 or more and less than 20 is denoted as A) | – | – |
| 17.9 nM | CCC[C@H]1C(=O)N[C@@H]([C@@H](C)CC)C(=O)N(CCC)CC(=O)N(C)[C@H]2C/C=C\CCN(C2=O)[C@@H](Cc2ccc(C(F)(F)F)cc2)C(=O)N(C)CC(=O)N[C@@H](CCc2cc(F)c(C(F)(F)F)c(F)c2)C(=O)N2C[C@H](OCC)C[C@H]2C(=O)NC2(CCC2)C(=O)N(C)[C@@H](C2CCCC2)C(=O)N(C)[C@H](C(=O)N(C)C)CC(=O)N1C [PP1767] | – | – | – | – | A (a compound having 10 or more and less than 20 is denoted as A) | B (a compound having 3 or more and less than 10 is denoted as B) |
| 23.5 nM | CCC[C@H]1C(=O)N[C@@H]([C@@H](C)CC)C(=O)N(C)CC(=O)N(C)[C@H]2C/C=C\CCN(C2=O)[C@@H](Cc2ccc(C)cc2)C(=O)N(C)CC(=O)N[C@@H](CCc2ccc(C(F)(F)F)c(Cl)c2)C(=O)N2C[C@H](CC)C[C@H]2C(=O)NC2(CC(C)(C)C2)C(=O)N(C)[C@@H](C2CCCC2)C(=O)N(C)[C@H](C(=O)N(C)C)CC(=O)N1C [PP2212] | A (a compound having 10 or more and less than 20 is denoted as A) | B (a compound having 3 or more and less than 10 is denoted as B) | – | – | – | – |
| 5 nM | CCCN1C(=O)[C@@H]2CCN2C(=O)[C@H](C)N(C)C(=O)[C@H]([C@@H](C)CC)NC(=O)[C@H](CC(C)C)N(C)C(=O)C[C@@H](C(=O)N2CCOCC2)N(C)C(=O)[C@H](C2CCCC2)N(C)C(=O)C2(CCCC2)NC(=O)[C@@H]2C[C@H](OCC)CN2C(=O)[C@H](CCc2ccc(C(F)(F)F)c(Cl)c2)NC(=O)CN(C)C(=O)[C@@H]1Cc1ccc(C(F)(F)F)cc1 [PP0242] ([NMeL]I[NMeA][Aze][NPrPhe(4-CF3)][Sar][hPhe(3-Cl-4-CF3)][cisHyp](Et)[Ac5c][NMeGly(cPent)][NMeD]-Morpholide; lactam N-11) | – | – | C (A compound having a KD ratio of 0.1 or more and less than 3 is denoted as C) | C (A compound having a KD ratio of 0.1 or more and less than 3 is denoted as C) | – | – |
| 42.6 nM | CCCN1C(=O)CN(C)C(=O)CNC(=O)[C@H]([C@@H](C)CC)NC(=O)[C@H](CC(C)C)N(C)C(=O)C[C@@H](C(=O)N(C)C)NC(=O)[C@H](C2CCCC2)N(C)C(=O)C2(CCCC2)NC(=O)[C@@H]2C[C@@H](OCC)CN2C(=O)[C@H](CCc2ccc(C(F)(F)F)c(Cl)c2)NC(=O)CN(C)C(=O)[C@@H]1Cc1ccc(C(F)(F)F)cc1 [PP0365] ([NMeL]IG[Sar][NPrPhe(4-CF3)][Sar][hPhe(3-Cl-4-CF3)][Hyp](Et)[Ac5c][NMeGly(cPent)]D-NMe2; lactam N-11) | – | – | B (a compound having 3 or more and less than 10 is denoted as B) | B (a compound having 3 or more and less than 10 is denoted as B) | – | – |
